biological target: Neurotensin receptor type 1 (Rattus norvegicus, UniProt P20789); assay: Tested for binding affinity against Neurotensin receptor
Sequence (P20789 whole entry): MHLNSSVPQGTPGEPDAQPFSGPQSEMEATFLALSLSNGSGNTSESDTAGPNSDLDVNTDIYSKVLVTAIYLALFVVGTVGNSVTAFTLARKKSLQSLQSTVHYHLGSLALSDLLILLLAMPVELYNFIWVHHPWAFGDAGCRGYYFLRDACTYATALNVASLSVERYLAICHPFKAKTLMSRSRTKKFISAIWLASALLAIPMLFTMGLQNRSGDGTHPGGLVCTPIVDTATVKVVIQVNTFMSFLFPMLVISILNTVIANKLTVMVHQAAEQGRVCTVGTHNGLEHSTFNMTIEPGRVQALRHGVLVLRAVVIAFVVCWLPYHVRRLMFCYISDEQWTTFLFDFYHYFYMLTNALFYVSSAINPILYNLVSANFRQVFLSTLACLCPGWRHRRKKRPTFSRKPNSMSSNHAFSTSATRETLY

Row | Compound | Ki
1 | CC[C@H](C)[C@H](NC(=O)N(Cc1ccc(O)cc1)c1cccc(NC[C@H](CCCCN)NC(=O)OC(C)(C)C)c1)C(=O)N[C@@H](CC(C)C)C(=O)O | 730 nM
2 | CC[C@H](C)[C@H](NC(=O)N(Cc1ccc(F)cc1)c1cccc(NC(=O)[C@H](CCCCN)NC(=O)OC(C)(C)C)c1)C(=O)N[C@@H](CC(C)C)C(=O)O | 890 nM
3 | CC[C@H](C)[C@H](NC(=O)[C@H](Cc1ccc(O)cc1)c1cccc(NC(=O)[C@H](CCCCN)NC(=O)OC(C)(C)C)c1)C(=O)N[C@@H](CC(C)C)C(=O)O | 29 nM
4 | CC[C@H](C)[C@H](NC(=O)N(Cc1ccc(O)cc1)c1cccc(NC(=O)[C@H](CCCCN)NC(=O)OC(C)(C)C)c1F)C(=O)N[C@@H](CC(C)C)C(=O)O | 2200 nM
5 | CC[C@H](C)[C@H](NC(=O)N(Cc1ccc(O)cc1)c1ccc(F)c(NC(=O)[C@H](CCCCN)NC(=O)OC(C)(C)C)c1)C(=O)N[C@@H](CC(C)C)C(=O)O | > 10000 nM
6 | CC[C@H](C)[C@H](NC(=O)N(Cc1ccc(O)cc1)c1cccc(NC(=O)[C@H](CCCCN)NC(=O)OC(C)(C)C)c1)C(=O)N[C@@H](CC(C)C)C(=O)O | 1250 nM
